What was measured:
Assay type in all cases: functional
Settings in all cases: at 10 µM
A549 = assay: Growth inhibition of human A549 cells after 48 hrs by cell counting analysis
MCF7 = assay: Growth inhibition of human MCF7 cells after 48 hrs by cell counting analysis
OVCAR-3 = assay: Growth inhibition of human OVCAR3 cells after 48 hrs by cell counting analysis
SF-268 = assay: Growth inhibition of human SF268 cells after 48 hrs by cell counting analysis
UO-31 = assay: Growth inhibition of human UO31 cells after 48 hrs by cell counting analysis
SN12C = assay: Growth inhibition of human SN12C cells after 48 hrs by cell counting analysis
UACC-62 = assay: Growth inhibition of human UACC62 cells after 48 hrs by cell counting analysis
SF-539 = assay: Growth inhibition of human SF539 cells after 48 hrs by cell counting analysis
M14 = assay: Growth inhibition of human M14 cells after 48 hrs by cell counting analysis
HCT-15 = assay: Growth inhibition of human HCT15 cells after 48 hrs by cell counting analysis
CAKI-1 = assay: Growth inhibition of human Caki1 cells after 48 hrs by cell counting analysis
LOX IMVI = assay: Growth inhibition of human LOXIMVI cells after 48 hrs by cell counting analysis
SF-295 = assay: Growth inhibition of human SF295 cells after 48 hrs by cell counting analysis
TK-10 = assay: Growth inhibition of human TK10 cells after 48 hrs by cell counting analysis
SNB-19 = assay: Growth inhibition of human SNB19 cells after 48 hrs by cell counting analysis
NCI-H23 = assay: Growth inhibition of human NCI-H23 cells after 48 hrs by cell counting analysis
UACC-257 = assay: Growth inhibition of human UACC257 cells after 48 hrs by cell counting analysis
SK-MEL-5 = assay: Growth inhibition of human SK-MEL-5 cells after 48 hrs by cell counting analysis
BT-549 = assay: Growth inhibition of human BT549 cells after 48 hrs by cell counting analysis
SK-MEL-28 = assay: Growth inhibition of human SK-MEL-28 cells after 48 hrs by cell counting analysis
HOP-62 = assay: Growth inhibition of human HOP62 cells after 48 hrs by cell counting analysis
EKVX = assay: Growth inhibition of human EKVX cells after 48 hrs by cell counting analysis
MOLT-4 = assay: Growth inhibition of human MOLT4 cells after 48 hrs by cell counting analysis
RXF 393 = assay: Growth inhibition of human RXF393 cells after 48 hrs by cell counting analysis
SK-MEL-2 = assay: Growth inhibition of human SK-MEL-2 cells after 48 hrs by cell counting analysis
HCC 2998 = assay: Growth inhibition of human HCC2998 cells after 48 hrs by cell counting analysis
ACHN = assay: Growth inhibition of human ACHN cells after 48 hrs by cell counting analysis
HOP-92 = assay: Growth inhibition of human HOP92 cells after 48 hrs by cell counting analysis
PC-3 = assay: Growth inhibition of human PC3 cells after 48 hrs by cell counting analysis
HCT-116 = assay: Growth inhibition of human HCT116 cells after 48 hrs by cell counting analysis
IGROV-1 = assay: Growth inhibition of human IGROV1 cells after 48 hrs by cell counting analysis
SR = assay: Growth inhibition of human SR cells after 48 hrs by cell counting analysis
Malme-3M = assay: Growth inhibition of human MALME-3M cells after 48 hrs by cell counting analysis
OVCAR-8 = assay: Growth inhibition of human OVCAR8 cells after 48 hrs by cell counting analysis
HL-60 = assay: Growth inhibition of human HL60 cells after 48 hrs by cell counting analysis
NCI-H226 = assay: Growth inhibition of human NCI-H226 cells after 48 hrs by cell counting analysis
K562 = assay: Growth inhibition of human K562 cells after 48 hrs by cell counting analysis
SW-620 = assay: Growth inhibition of human SW620 cells after 48 hrs by cell counting analysis
CCRF-CEM = assay: Growth inhibition of human CCRF-CEM cells after 48 hrs by cell counting analysis
KM12 = assay: Growth inhibition of human KM12 cells after 48 hrs by cell counting analysis
SK-OV-3 = assay: Growth inhibition of human SKOV3 cells after 48 hrs by cell counting analysis
T47D = assay: Growth inhibition of human T47D cells after 48 hrs by cell counting analysis
[1] = Growth inhibition of human NCI-ADR-RES cells after 48 hrs by cell counting analysis
U-251 = assay: Growth inhibition of human U251 cells after 48 hrs by cell counting analysis
[2] = Growth inhibition of human NCI-322M cells after 48 hrs by cell counting analysis
HT-29 = assay: Growth inhibition of human HT-29 cells after 48 hrs by cell counting analysis
RPMI-8226 = assay: Growth inhibition of human RPMI8226 cells after 48 hrs by cell counting analysis
NCI-H522 = assay: Growth inhibition of human NCI-H522 cells after 48 hrs by cell counting analysis
MDA-MB-435 = assay: Growth inhibition of human MDA-MB-435 cells after 48 hrs by cell counting analysis
SNB-75 = assay: Growth inhibition of human SNB75 cells after 48 hrs by cell counting analysis
MDA-MB-468 = assay: Growth inhibition of human MDA-MB-468 cells after 48 hrs by cell counting analysis
OVCAR-5 = assay: Growth inhibition of human OVCAR5 cells after 48 hrs by cell counting analysis
OVCAR-4 = assay: Growth inhibition of human OVCAR4 cells after 48 hrs by cell counting analysis
MDA-MB-231 = assay: Growth inhibition of human MDA-MB-231 cells after 48 hrs by cell counting analysis

Structure (SMILES): O=C(CCN1CCN(c2ccccc2)CC1)Nc1nc(-c2ccc(Cl)cc2)cs1
- growth inhibition (GI) (A549): 12%
- growth inhibition (GI) (MCF7): 10.9%
- growth inhibition (GI) (OVCAR-3): <10%
- growth inhibition (GI) (SF-268): <10%
- growth inhibition (GI) (UO-31): 38.6%
- growth inhibition (GI) (SN12C): 11.9%
- growth inhibition (GI) (UACC-62): 20.5%
- growth inhibition (GI) (SF-539): <10%
- growth inhibition (GI) (M14): <10%
- growth inhibition (GI) (HCT-15): <10%
- growth inhibition (GI) (CAKI-1): <10%
- growth inhibition (GI) (LOX IMVI): <10%
- growth inhibition (GI) (SF-295): 24.2%
- growth inhibition (GI) (TK-10): <10%
- growth inhibition (GI) (SNB-19): <10%
- growth inhibition (GI) (NCI-H23): 13.7%
- growth inhibition (GI) (UACC-257): <10%
- growth inhibition (GI) (SK-MEL-5): 10.1%
- growth inhibition (GI) (BT-549): <10%
- growth inhibition (GI) (SK-MEL-28): <10%
- growth inhibition (GI) (HOP-62): <10%
- growth inhibition (GI) (EKVX): <10%
- growth inhibition (GI) (MOLT-4): 36.3%
- growth inhibition (GI) (RXF 393): <10%
- growth inhibition (GI) (SK-MEL-2): <10%
- growth inhibition (GI) (HCC 2998): <10%
- growth inhibition (GI) (ACHN): <10%
- growth inhibition (GI) (HOP-92): 23.7%
- growth inhibition (GI) (PC-3): 12%
- growth inhibition (GI) (HCT-116): 19.4%
- growth inhibition (GI) (IGROV-1): <10%
- growth inhibition (GI) (SR): <10%
- growth inhibition (GI) (Malme-3M): <10%
- growth inhibition (GI) (OVCAR-8): <10%
- growth inhibition (GI) (HL-60): 19.6%
- growth inhibition (GI) (NCI-H226): 14.1%
- growth inhibition (GI) (K562): 21.6%
- growth inhibition (GI) (SW-620): <10%
- growth inhibition (GI) (CCRF-CEM): 16.3%
- growth inhibition (GI) (KM12): <10%
- growth inhibition (GI) (SK-OV-3): <10%
- growth inhibition (GI) (T47D): <10%
- growth inhibition (GI) [1]: <10%
- growth inhibition (GI) (U-251): <10%
- growth inhibition (GI) [2]: 27.8%
- growth inhibition (GI) (HT-29): 18.6%
- growth inhibition (GI) (RPMI-8226): 25.4%
- growth inhibition (GI) (NCI-H522): 18.7%
- growth inhibition (GI) (MDA-MB-435): <10%
- growth inhibition (GI) (SNB-75): 14.9%
- growth inhibition (GI) (MDA-MB-468): <10%
- growth inhibition (GI) (OVCAR-5): <10%
- growth inhibition (GI) (OVCAR-4): <10%
- growth inhibition (GI) (MDA-MB-231): <10%

Structure (SMILES): CN1CCN(CCC(=O)Nc2nc(-c3ccc(Br)cc3)cs2)CC1
- growth inhibition (GI) (A549): 22.2%
- growth inhibition (GI) (MCF7): 28.8%
- growth inhibition (GI) (OVCAR-3): <10%
- growth inhibition (GI) (SF-268): 12.8%
- growth inhibition (GI) (UO-31): 50.8%
- growth inhibition (GI) (SN12C): 31.9%
- growth inhibition (GI) (UACC-62): 71.6%
- growth inhibition (GI) (SF-539): 31.4%
- growth inhibition (GI) (M14): 33.7%
- growth inhibition (GI) (HCT-15): 42.6%
- growth inhibition (GI) (CAKI-1): 30.2%
- growth inhibition (GI) (LOX IMVI): 31.8%
- growth inhibition (GI) (SF-295): 14.4%
- growth inhibition (GI) (TK-10): 22.5%
- growth inhibition (GI) (SNB-19): 20.9%
- growth inhibition (GI) (NCI-H23): 26%
- growth inhibition (GI) (UACC-257): 36.4%
- growth inhibition (GI) (SK-MEL-5): 76.2%
- growth inhibition (GI) (BT-549): 32.5%
- growth inhibition (GI) (SK-MEL-28): 23.4%
- growth inhibition (GI) (HOP-62): 25%
- growth inhibition (GI) (EKVX): 10.8%
- growth inhibition (GI) (MOLT-4): 38.1%
- growth inhibition (GI) (RXF 393): 38.1%
- growth inhibition (GI) (SK-MEL-2): <10%
- growth inhibition (GI) (HCC 2998): <10%
- growth inhibition (GI) (ACHN): 15.9%
- growth inhibition (GI) (HOP-92): 42.7%
- growth inhibition (GI) (PC-3): 24.6%
- growth inhibition (GI) (HCT-116): 42.5%
- growth inhibition (GI) (IGROV-1): 20.4%
- growth inhibition (GI) (SR): <10%
- growth inhibition (GI) (Malme-3M): 24.6%
- growth inhibition (GI) (OVCAR-8): <10%
- growth inhibition (GI) (HL-60): 37.7%
- growth inhibition (GI) (NCI-H226): 19.1%
- growth inhibition (GI) (K562): 52.4%
- growth inhibition (GI) (SW-620): <10%
- growth inhibition (GI) (CCRF-CEM): 24.9%
- growth inhibition (GI) (KM12): <10%
- growth inhibition (GI) (SK-OV-3): <10%
- growth inhibition (GI) (T47D): 34.9%
- growth inhibition (GI) [1]: 22.9%
- growth inhibition (GI) (U-251): 33.6%
- growth inhibition (GI) [2]: 17.2%
- growth inhibition (GI) (HT-29): 80.4%
- growth inhibition (GI) (RPMI-8226): 30.5%
- growth inhibition (GI) (NCI-H522): 28.5%
- growth inhibition (GI) (MDA-MB-435): 50.6%
- growth inhibition (GI) (SNB-75): 47.9%
- growth inhibition (GI) (MDA-MB-468): 48.7%
- growth inhibition (GI) (OVCAR-5): 15.6%
- growth inhibition (GI) (OVCAR-4): <10%
- growth inhibition (GI) (MDA-MB-231): 64.3%
